# How the values were obtained:
# human skin fibroblasts = test: Toxicity of peptides against human fibroblasts (calcein AM / propidium iodide; cell cycle); format: cell-based; settings: 96 h, both with and without pre-incubation; for number of dead cells: calcein AM / propidium iodide
# Description: The peptides were pre-incubated for 12 h in DMEM medium without serum in a CO2 incubator. After the incubation period, serum was added to the medium to a final concentration of 10%, and the preparation was added dropwise onto the cells. The cytotoxic effects of peptides against eukaryotic cells (human fibroblasts and BT474) were subsequently assessed using the same method as in the previous study [62].
# [1] = system: S. aureus (strain 209P), MRSA (strain ATCC 43300), B. cereus (strain IP 5832), P. aeruginosa (strain ATCC 28753), and E. coli (strain K12); test: Antimicrobial effect compared with gentamicin, panel of Figure 5; format: cell-based; settings: Figure 5 panel; Mueller–Hinton Broth; 15 h; two independent experiments
# Description: The antibiotic gentamicin sulfate was used as a positive control. The concentration of gentamicin was 100 µM. Cell cultures in a liquid medium (Mueller–Hinton Broth) served as a negative control. Error bars show standard errors. Number of independent experiments is two. #—for significant differences with negative control p < 0.05.
# (§1) S. aureus (strains 209P and 129B), MRSA (strains ATCC 43300 and SA 180-F), B. cereus (strain IP 5832), P. aeruginosa (strains ATCC 28753 and 2943), and E. coli (strains K12 and MG1655) were cultured on Mueller–Hinton Broth (MHB).
# (§2) Statistical analysis was conducted using the SigmaPlot v15 software package (SPSS Inc., Chicago, IL, USA). Each experiment was repeated at least twice (n ≥ 2). Data are presented as mean ± standard deviation (M ± SD). Statistical significance was assessed using Student’s t-test and analysis of variance (ANOVA) in the tests of the antibacterial activity of the peptides. The confidence interval value of 0.95 was used, corresponding to an alpha value of 0.05. Statistically significant decreases in optical density compared to the negative control were considered for specific peptide concentrations with p-values below 0.05.
# MRSA SA 180-F strain = test: Antibacterial activity in liquid medium; format: cell-based, methicillin-resistant Staphylococcus aureus; settings: MRSA SA 180-F strain (clinical isolate), Mueller–Hinton Broth, two independent experiments
# Description: (§3) We utilized various strains of microorganisms in this study. […] Bacillus cereus strain IP 5832 (susceptible), Pseudomonas aeruginosa strains ATCC 28753 (susceptible) and 2943 (resistant), and Escherichia coli strains K12 and MG1655 (both susceptible) were also utilized in our experiments.
# as §1, §2
# MRSA ATCC 43300 strain = test: Antibacterial activity in liquid medium; format: cell-based, methicillin-resistant Staphylococcus aureus; settings: for Peptide Efficacy in Liquid Medium after 15 h of Incubation: MRSA ATCC 43300 strain, Mueller–Hinton Broth, two independent experiments
# Description: as §3, §1, §2
# B. cereus IP 5832 strain = test: Antibacterial activity in liquid medium; format: cell-based, Bacillus cereus; settings: Mueller–Hinton Broth, two independent experiments
# Description: as §3, §1, §2
# E. coli MG1655 strain = test: Antibacterial activity in liquid medium; format: cell-based, Escherichia coli; settings: for Peptide Efficacy in Liquid Medium after 24 h of Incubation: E. coli MG1655 strain, Mueller–Hinton Broth, two independent experiments; for concentration with antimicrobial activity / effective concentration (text to Figure 4): E. coli MG1655, liquid medium, 24 h
# Description: as §3, §1, §2
# E. coli K12 strain = test: Antibacterial activity in liquid medium; format: cell-based, Escherichia coli; settings: for Peptide Efficacy in Liquid Medium after 15 h of Incubation: E. coli K12 strain, Mueller–Hinton Broth, two independent experiments; for concentration with antimicrobial activity / effective concentration (text to Figure 4): E. coli K12, liquid medium, 15 h
# Description: as §3, §1, §2
# S. aureus 209P strain = test: Antibacterial activity in liquid medium; format: cell-based, Staphylococcus aureus; settings: for Peptide Efficacy in Liquid Medium after 15 h of Incubation: S. aureus 209P strain, Mueller–Hinton Broth, two independent experiments; for concentration at which inhibition of bacterial growth was observed (Figure 1): S. aureus 209P, liquid medium, 15 h, gentamicin positive control
# Description: as §3, §1, §2
# S. aureus 129B strain = test: Antibacterial activity in liquid medium; format: cell-based, Staphylococcus aureus; settings: for Peptide Efficacy in Liquid Medium after 24 h of Incubation: S. aureus 129B strain (clinical isolate), Mueller–Hinton Broth, two independent experiments
# Description: as §3, §1, §2
# [2] = system: P. aeruginosa 2943 strain; test: Antibacterial activity in liquid medium; format: cell-based, Pseudomonas aeruginosa; settings: for Peptide Efficacy in Liquid Medium after 24 h of Incubation: P. aeruginosa 2943 strain (resistant), Mueller–Hinton Broth, two independent experiments; for antimicrobial effect compared to the negative control (Figure 3): P. aeruginosa 2943, liquid medium, 24 h
# Description: as §3, §1, §2
# P. aeruginosa ATCC 28753 = test: Antibacterial activity in liquid medium; format: cell-based, Pseudomonas aeruginosa; settings: for Peptide Efficacy in Liquid Medium after 15 h of Incubation: Mueller–Hinton Broth, two independent experiments; for concentrations of peptides suppressing the growth of bacteria compared to the negative control (Figure 3): liquid medium, 15 h
# Description: as §3, §1, §2
# [3] = POPE:POPG bilayer; 0.1 M KCl, pH 7.4; subthreshold peptide concentrations (20 µg/mL)
# Source text: The effects of peptide R44K^S on the ionic permeability of planar lipid bilayers composed of an equimolar mixture of POPE and POPG mimicking target bacterial cell membranes was examined. The example of the time dependence of the transmembrane current produced by a subsequent one-side addition of R44K^S into the bathing solution (0.1 M KCl, pH 7.4) is shown in Figure 7A.
# The method of recording the transmembrane current under voltage-clamp conditions was used to study the effect of a synthetic peptide on a lipid membrane. Planar lipid bilayers were formed by the Montal and Mueller technique on an aperture of 50 µm diameter in a 10 µm thick Teflon film separating two compartments of Teflon chambers. Each compartment contained 0.1 M KCl and 10 mM HEPES at pH 7.4. Hexadecane was used for the aperture pretreatment. […]
# Ag/AgCl electrodes with 1.5% agarose/2 M KCl bridges were used to apply the transmembrane voltage (V) and measure the current flowing through the bilayer (I). […] Data were digitized by a Digidata 1550A and analyzed using pClamp 10.7 (Molecular Devices, LLC, Orleans Drive, Sunnyvale, CA, USA) and Origin 7.0 (OriginLab Corporation, Northampton, MA, USA). […]
# BT474 cells = settings: 100 µg/mL, both with and without pre-incubation, 96 h
# Description: To analyze the cytotoxic effect, cells after incubation with peptides were stained with calcein AM (stains living cells) and propidium iodide (stains dead cells).
# Analysis of the cytostatic effect was performed on the basis of the distribution of cells by phases of the cell cycle and mitotic activity.
# The peptides were pre-incubated for 12 h in DMEM medium without serum in a CO2 incubator. After the incubation period, serum was added to the medium to a final concentration of 10%, and the preparation was added dropwise onto the cells. The cytotoxic effects of peptides against eukaryotic cells (human fibroblasts and BT474) were subsequently assessed using the same method as in the previous study.
Substance,Peptide Efficacy in Liquid Medium after 24 h of Incubation (MRSA SA 180-F strain),Peptide Efficacy in Liquid Medium after 15 h of Incubation (MRSA ATCC 43300 strain),Peptide Efficacy in Liquid Medium after 24 h of Incubation (E. coli MG1655 strain),Peptide Efficacy in Liquid Medium after 15 h of Incubation (E. coli K12 strain),Peptide Efficacy in Liquid Medium after 15 h of Incubation (S. aureus 209P strain),Peptide Efficacy in Liquid Medium after 24 h of Incubation (S. aureus 129B strain),Peptide Efficacy in Liquid Medium after 24 h of Incubation [2],Peptide Efficacy in Liquid Medium after 15 h of Incubation (P. aeruginosa ATCC 28753),cytotoxic effect (human skin fibroblasts; 100 µg/mL),concentration with antimicrobial activity / effective concentration (text to Figure 4) (E. coli MG1655 strain) [µM],concentration with antimicrobial activity / effective concentration (text to Figure 4) (E. coli K12 strain),concentration at which inhibition of bacterial growth was observed (Figure 1) (S. aureus 209P strain),antimicrobial effect compared to the negative control (Figure 3) [2],concentrations of peptides suppressing the growth of bacteria compared to the negative control (Figure 3) (P. aeruginosa ATCC 28753) [µM],other results
"RKKRRQRRRGG-Sar-GVVVHI-X-GGKF-NH2 [R23F^S*, Peptide with TAT fragment and modified amyloidogenic fragment of S. aureus S1 protein, C-terminal amide]",379.8 µM,12 µM,379.8 µM,3 µM,6 µM,379.8 µM,38 µM,6 µM,,,,,,,number of dead cells (human skin fibroblasts; 50 µg/mL): 11 ± 3%; number of dead cells (human skin fibroblasts; 100 µg/mL): 12 ± 3%; concentrations with antimicrobial effect comparable to gentamicin (100 μM) against all bacteria [1]: 24 to 48 µM; Peptide Efficacy in Liquid Medium after 15 h of Incubation (B. cereus IP 5832 strain): 3 µM
"RKKRRQRRRGGGGVVVHINGGKFGGGGSRQIKIWFQNRRMKWKK [R44K^S, Unmodified peptide: TAT fragment, amyloidogenic fragment and Antp fragment; commercial product]",">194.4 µM, SA 180-F strain",12 µM,194.4 µM,6 µM,6 µM,">194.4 µM, 129B strain",">194.4 µM, 2943 strain",3 µM,no cytotoxic effect,19.4,6 µM,6 to 12 µM,did not exhibit antimicrobial effects,1.5,"single pore conductance [3]: 10–30 pS; concentration at which inhibitory effect / complete suppression of growth was observed (text to Figure 2) (MRSA ATCC 43300 strain; MRSA ATCC 43300, liquid medium, 15 h): 12 µM"
"VVVHINGGKFGGGGSRQIKIWFQNRRMKWKK [V31K^S, commercial product]",">276.8 µM, SA 180-F strain",">12 µM, ATCC 43300 strain",">276.8 µM, MG1655 strain",">12 µM, K12 strain",">12 µM, 209P strain",">276.8 µM, 129B strain",">276.8 µM, 2943 strain",">12 µM, ATCC 28753",no cytotoxic effect,276.8,did not exhibit antimicrobial activity,not demonstrated,did not exhibit antimicrobial effects,6,"complete inhibition of bacterial growth (Figure 1) (S. aureus 129B strain; S. aureus 129B, liquid medium, 24 h): not demonstrated; cytotoxic effect (BT474 cells): no cytotoxic effect"
